Source: US20260250627A1, “A new bacterial strain Weissella cibaria, a composition comprising it, a pharmaceutical composition for use, a dietary supplement, a probiotic preparation, a bacterial starter culture for making bread, sourdough, bread, a method for the production of bread, a method for microbiological production …” (INSTYTUT BIOCHEMII I BIOFIZVKI PAN, priority 2023, published 2026)
In brackets after ≈: the same amount, converted by molar mass.

system: IBB3394 strain (KKP 2094p); test: Antibiotic sensitivity test with E-test strips (Example 11); assay type: cell-based, Weissella cibaria; settings: E-test strips, IST-MRS, 30° C., 48 h, aerobic
Protocol: The safety assessment of the selected strain of Weissella sp. IBB3394 was carried out by testing antibiotic susceptibility using E-test strips (bioMerieux) in accordance with the manufacturer's recommendations. The tested strain was seeded on IST-MRS solid medium and incubated at 30° C. in aerobic conditions. […] Antibiotic strips were placed on the surface of the plate and the plates were incubated at 30° C. for 48 h in aerobic conditions.

Which “Minimum inhibitory concentration (MIC) IBB3394” value does the source give for gentamicin [GM] here?
The value was 4 µg/mL.

same assay, conditions: Weissella cibaria, 48 h, read-out: Minimum inhibitory concentration (MIC) IBB3394

How did the MIC turn out when `CN[C@H](CC(C)C)C(=O)N[C@H]1C(=O)N[C@@H](CC(N)=O)C(=O)N[C@H]2C(=O)N[C@H]3C(=O)N[C@H](C(=O)N[C@H](C(=O)O)c4cc(O)cc(O)c4-c4cc3ccc4O)[C@H](O)c3ccc(c(Cl)c3)Oc3cc2cc(c3O[C@@H]2O[C@H](CO)[C@@H](O)[C@H](O)[C@H]2O[C@H]2C[C@](C)(N)[C@H](O)[C@H](C)O2)Oc2ccc(cc2Cl)[C@H]1O` [VA, vancomycin] was run?
The MIC was greater than 256 µg/mL.

same assay, conditions: Weissella cibaria; E-test strips, IST-MRS, 30° C., 48 h, aerobic; read-out: Minimum inhibitory concentration (MIC) IBB3394

For `CC1(C)S[C@@H]2[C@H](NC(=O)[C@H](N)c3ccccc3)C(=O)N2[C@H]1C(=O)O` [AM, ampicillin], which MIC is on record?
Its MIC is 0.38 to 0.5 µg/mL (≈ 1.09 to 1.43 µM).

For `O=C(N[C@H](CO)[C@H](O)c1ccc([N+](=O)[O-])cc1)C(Cl)Cl` [CL, chloramphenicol], which MIC is on record?
Its MIC is 2 to 3 µg/mL (≈ 6.19 to 9.28 µM).

With `CCC[C@@H]1C[C@@H](C(=O)N[C@@H]([C@H]2O[C@H](SC)[C@H](O)[C@@H](O)[C@H]2O)[C@H](C)Cl)N(C)C1` [CM, clindamycin] as the molecule, how does the MIC read?
Its MIC is 0.016 µg/mL (≈ 0.0376 µM).

Which MIC does the source give for `CC[C@H]1OC(=O)[C@H](C)[C@@H](O[C@H]2C[C@@](C)(OC)[C@@H](O)[C@H](C)O2)[C@H](C)[C@@H](O[C@@H]2O[C@H](C)C[C@H](N(C)C)[C@H]2O)[C@](C)(O)C[C@@H](C)C(=O)[C@H](C)[C@@H](O)[C@]1(C)O` [EM, erythromycin] here?
The MIC was 0.094 µg/mL (≈ 0.128 µM).

With `NC[C@H]1O[C@H](O[C@H]2[C@H](O)[C@@H](O[C@H]3O[C@H](CO)[C@@H](O)[C@H](N)[C@H]3O)[C@H](N)C[C@@H]2N)[C@H](O)[C@@H](O)[C@@H]1O` [KM, kanamycin] as the molecule, how does the MIC read?
Its MIC is 16 µg/mL (≈ 33 µM).

With `[H]/N=C(/N)N[C@H]1[C@H](O)[C@@H](O)[C@H](O[C@@H]2O[C@@H](C)[C@](O)(C=O)[C@H]2O[C@@H]2O[C@@H](CO)[C@H](O)[C@@H](O)[C@@H]2NC)[C@@H](N/C(N)=N\[H])[C@@H]1O` [SM, streptomycin] as the molecule, how does the MIC read?
Its MIC is 8 µg/mL (≈ 13.8 µM).

How did the MIC turn out when `CN(C)[C@@H]1C(O)=C(C(N)=O)C(=O)[C@@]2(O)C(O)=C3C(=O)c4c(O)cccc4[C@@](C)(O)[C@H]3C[C@@H]12` [TC, tetracycline] was run?
Its MIC is 2 µg/mL (≈ 4.5 µM).
